The values that follow come from patent US5444052A, “Amphotericin B composition with enhanced fungal activity” (Temple University of the Commonwealth System of Higher …, priority 1993, dated 1995).

Read-outs that look alike come from different tables or passages of the source.

Data set [1] concerns C. albicans. The experiment in a line: Checkerboard minimum inhibitory concentration and synergy test (microtiter plate and agar plate analysis) on Candida albicans. The data set is classed as cell-based. Particulars: for Fold MIC decrease: added compound with other compound at 1/2 MIC vs alone; for 1/2 MIC: half of MIC, concentration used in the combination; for MIC: Candida albicans, 24 h.

Data set [2] concerns C. neoformans. Put plainly: Checkerboard minimum inhibitory concentration and synergy test (microtiter plate and agar plate analysis) on C. neoformans. The note with it: for Fold MIC decrease: added compound with other compound at 1/2 MIC vs alone; for 1/2 MIC: half of MIC, concentration used in the combination; for MIC: Cryptococcus neoformans; for MIC / synergistic effect of DDG isomers on antifungal effect of amphotericin B: 24 h; for synergistic effect of DDG isomers on antifungal effect of amphotericin B: 37° C. (FIG. 11). The data set is classed as cell-based, Cryptococcus neoformans.

Data set [3] concerns erythrocytes. Particulars: by binding to cholesterol in the cell membrane, causing anemia; cited from earlier work.
Data set [4] has as its system bacteria, rickettsiae, and viruses. Particulars: cited from earlier work.
For data set [5] the following is noted: cited from earlier work.
For data set [6] the following is noted: intravenous, 1 mg/kg, cited from earlier work.
Data set [7] concerns human cells. Particulars: cited from earlier work.
The test system of data set [8] is neurons. The note with it: cited from earlier work.
For data set [9], the system named is laboratory animals. The note with it: fed in very high doses; cited from earlier work.
For data set [10], the system named is mice. Particulars: cited from earlier work.
The subject of data set [11] is phagocytes. The note with it: cited from earlier work.
Setting [12] is: 25° C., agar plate, compound alone.
Setting [13] is: 25° C., microtiter plate, compound alone.
Where [14] appears, read: 37° C., agar plate, compound alone.
[15] abbreviates: 37° C., microtiter plate, compound alone.
Where [16] appears, read: 25° C., agar plate, compound alone, read-out: MIC.
Setting [17] is: 25° C., microtiter plate, compound alone, read-out: MIC.
Where [18] appears, read: 37° C., agar plate, compound alone, read-out: MIC.
[19] abbreviates: 37° C., microtiter plate, compound alone, read-out: MIC.

On to `C[C@@H]1[C@H](O)[C@@H](C)/C=C/C=C/C=C/C=C/C=C/C=C/C=C/[C@H](O[C@@H]2O[C@H](C)[C@@H](O)[C@H](N)[C@@H]2O)C[C@@H]2O[C@](O)(C[C@@H](O)C[C@@H](O)[C@H](O)CC[C@@H](O)C[C@@H](O)CC(=O)O[C@H]1C)C[C@H](O)[C@H]2C(=O)O` [amphotericin B, [1R-(1R*,3S*, 5R*,6R*,9R*, 11R*,15S*,16R*,17R*,18S*,19E,21E,23E,25E,27E,29E,31E,33R*, 35S*,36R*,37S,)]-33-[(3-amino-3,6-dideoxy-β-D-mannopyranosyl)oxy]1,3,5,6,9,11,17,37-octahydroxy-15,16,18-trimethyl-13-oxo-14,39-dioxabicyclo-[33.3.1]nonatriaconta-19,21,23,25,27,29,31-heptaene-36-carboxylic acid], for which the “Fold MIC decrease” value was found to be 72 in data set [1] (25° C., agar plate); 64 in data set [1] (25° C., microtiter plate); 10.6 in data set [1] (37° C., agar plate); 5.3 in data set [1] (37° C., microtiter plate); 72 in data set [2] (25° C., agar plate); 48 in data set [2] (25° C., microtiter plate). Further, the “Fold MIC decrease” value in [2] (37° C., agar plate) is on record as 80; in [2] (37° C., microtiter plate), 12.7. The “1/2 MIC” value in [1] (25° C., agar plate) stood at 1.13 µg/mL; in data set [1] (25° C., microtiter plate), 1 µg/mL; in data set [1] (37° C., agar plate) it was 1 µg/mL; in [1] (37° C., microtiter plate) it was 0.5 µg/mL; in data set [2] (25° C., agar plate) it was 1.13 µg/mL; in [2] (25° C., microtiter plate) it was 1.12 µg/mL. Besides, the “1/2 MIC” value was 1.13 µg/mL in data set [2] (25° C., microtiter plate, listed as Amph. B); 1.25 µg/mL in data set [2] (37° C., agar plate); 0.75 µg/mL in data set [2] (37° C., microtiter plate). Further, the MIC in data set [1] (setting [12]) is 2.25 µg/mL; in data set [1] (setting [13]), 2 µg/mL; in data set [1] (setting [14]), 2 µg/mL; in data set [1] (setting [15]), 1 µg/mL; in data set [1] (read-out: Resulting MIC of added compound, 25° C., agar plate, in presence of the other compound at 1/2 MIC (rac-1-DDG 10 or Amph. B 1.13 μg/ml)) it was 0.0313 µg/mL; in [1] (read-out: Resulting MIC of added compound, 25° C., microtiter plate, in presence of the other compound at 1/2 MIC (rac-1-DDG 5 or Amph. B 1 μg/ml)), 0.0313 µg/mL. Besides, the MIC in data set [1] (read-out: Resulting MIC of added compound, 37° C., agar plate, in presence of the other compound at 1/2 MIC (rac-1-DDG 7.5 or Amph. B 1 μg/ml)) was 0.188 µg/mL; in data set [1] (read-out: Resulting MIC of added compound, 37° C., microtiter plate, in presence of the other compound at 1/2 MIC (rac-1-DDG 7.5 or Amph. B 0.5 μg/ml)) it was 0.188 µg/mL; in data set [2] (setting [12]) it was 2.25 µg/mL; in [2] (setting [13]), 2.25 µg/mL; in data set [2] (setting [14]), 2.5 µg/mL; in data set [2] (setting [15]), 1.5 µg/mL. Besides, the MIC in data set [2] (read-out: Resulting MIC of added compound, 25° C., 24 h, microtiter plate, in presence of the other compound at 1/2 MIC (rac-1-DDG 7.5 or Amph. B 1.13 μg/ml)) is 0.047 µg/mL; in data set [2] (read-out: Resulting MIC of added compound, 25° C., agar plate, in presence of the other compound at 1/2 MIC (rac-1-DDG 5 or Amph. B 1.13 μg/ml)), 0.0313 µg/mL; in [2] (read-out: Resulting MIC of added compound, 37° C., agar plate, in presence of the other compound at 1/2 MIC (rac-1-DDG 10 or Amph. B 1.25 μg/ml)), 0.0313 µg/mL; in data set [2] (read-out: Resulting MIC of added compound, 37° C., microtiter plate, in presence of the other compound at 1/2 MIC (rac-1-DDG 7.5 or Amph. B 0.75 μg/ml)), 0.118 µg/mL. The damage to erythrocytes result in data set [3] was “damages erythrocytes”. Also, in data set [4], the “effect on bacteria, rickettsiae, and viruses” value is given as “no effect”. Besides, the solubility in water result in data set [5] (crystalline) is on record as “insoluble in water”. The peak serum concentrations in data set [6] (by end of infusion) is reported as 2-3 micrograms/ml. Moreover, the serum concentration result in data set [6] (for up to 24 hours after infusion) is given as “above 0.5 micrograms/ml”.

For the compound `Nc1nc(=O)[nH]cc1F` [Fluorocytosine], the “toxicity to human cells” value in data set [7] was “toxic to human cells”.

Consider `CCCCCCCCCCCCOCC(O)CO` (racemic) [rac-1-DDG, rac-1-O-dodecylglycerol], for which the “Fold MIC decrease” value in data set [1] (25° C., agar plate) came out at 80; in data set [1] (25° C., microtiter plate) it was 36; in data set [1] (37° C., agar plate), 40; in data set [1] (37° C., microtiter plate), 40; in [2] (25° C., agar plate), 80; in [2] (25° C., microtiter plate) it was 120. The “Fold MIC decrease” value in data set [2] (37° C., agar plate) is 160; in data set [2] (37° C., microtiter plate), 50. For the same compound, the “1/2 MIC” value in data set [1] (25° C., agar plate) stood at 10 µg/mL; in data set [1] (25° C., microtiter plate), 5 µg/mL; in [1] (37° C., agar plate), 7.5 µg/mL; in data set [1] (37° C., microtiter plate), 7.5 µg/mL; in [2] (25° C., agar plate), 5 µg/mL; in data set [2] (25° C., microtiter plate), 7.5 µg/mL. Also, the “1/2 MIC” value turned out to be 10 µg/mL in [2] (37° C., agar plate) and 7.5 µg/mL in [2] (37° C., microtiter plate). Also, the minimum inhibitory concentration (MIC) in data set [1] (setting [16]) amounted to 20 µg/mL; in data set [1] (setting [17]), 10 µg/mL; in data set [1] (25° C., agar plate, in presence of the other compound at 1/2 MIC (rac-1-DDG 10 or Amph. B 1.13 μg/ml), read-out: Resulting MIC of added compound) it was 0.25 µg/mL; in data set [1] (25° C., microtiter plate, in presence of the other compound at 1/2 MIC (rac-1-DDG 5 or Amph. B 1 μg/ml), read-out: Resulting MIC of added compound) it was 0.281 µg/mL; in data set [1] (setting [18]), 15 µg/mL; in data set [1] (setting [19]), 15 µg/mL. Besides, the MIC in data set [1] (37° C., agar plate, in presence of the other compound at 1/2 MIC (rac-1-DDG 7.5 or Amph. B 1 μg/ml), read-out: Resulting MIC of added compound) worked out at 0.375 µg/mL; in data set [1] (37° C., microtiter plate, in presence of the other compound at 1/2 MIC (rac-1-DDG 7.5 or Amph. B 0.5 μg/ml), read-out: Resulting MIC of added compound), 0.375 µg/mL; in data set [2] (setting [16]), 10 µg/mL; in data set [2] (setting [17]), 15 µg/mL; in data set [2] (25° C., microtiter plate, in presence of the other compound at 1/2 MIC (rac-1-DDG 7.5 or Amph. B 1.13 μg/ml), read-out: Resulting MIC of added compound), 0.125 µg/mL; in data set [2] (25° C., agar plate, in presence of the other compound at 1/2 MIC (rac-1-DDG 5 or Amph. B 1.13 μg/ml), read-out: Resulting MIC of added compound), 0.125 µg/mL. Moreover, the minimal inhibitory concentration (MIC) in data set [2] (setting [18]) amounted to 20 µg/mL; in data set [2] (setting [19]), 15 µg/mL; in data set [2] (37° C., agar plate, in presence of the other compound at 1/2 MIC (rac-1-DDG 10 or Amph. B 1.25 μg/ml), read-out: Resulting MIC of added compound), 0.125 µg/mL; in data set [2] (37° C., microtiter plate, in presence of the other compound at 1/2 MIC (rac-1-DDG 7.5 or Amph. B 0.75 μg/ml), read-out: Resulting MIC of added compound), 0.3 µg/mL. In addition, in [8], the neuronal growth entry was “promote neuronal growth”. For the same compound, the toxicity entry in data set [9] was “does not appear to be toxic”. Also, the “organ weights or body weights” value in data set [10] (1 g/kg/day in feed, 4 weeks) is “did not significantly alter the organ weights or body weights of mice”. Moreover, in [10] (during feeding, 1 g/kg/day), the “linoleolyl moieties of total lipids” value is reported as “concomitant decrease”. Also, the “saturated acyl moieties of total lipids” value in data set [10] (during feeding, 1 g/kg/day) is listed as “marked increase”. In addition, the “lipids of organs and tissues” value in data set [10] (four weeks after removal of compound from diet) is on record as “close resemblance to those of a control group”. In addition, the “stimulation of phagocytes to ingest foreign substances” value in [11] is on record as “stimulated”. In [5], the solubility in water entry was “relatively good solubility in water”.

For `CCCCCCCCCCCCOC(CO)CO` [2-DDG, 2-O-dodecylglycerol], the “synergistic effect of DDG isomers on antifungal effect of amphotericin B” value (“synergistic effect of DDG isomers” below) in [2] was “synergistic effect”.

`CCCCCCCCCCCCOC[C@H](O)CO` [Sn-3-DDG, sn-3-O-dodecylglycerol]: the “synergistic effect of DDG isomers” value in [2] is on record as “synergistic effect”.

With `CCCCCCCCCCCCOC[C@@H](O)CO` [sn-1-DDG, sn-1-O-dodecylglycerol], the “synergistic effect of DDG isomers” value in data set [2] is “synergistic effect”.

Broadly, the MIC is the lowest concentration that inhibits growth of the organism.
